Measured values as given in patent US10519211B2, “Compounds as peptidic GLP1/glucagon/GIP receptor agonists” (SANOFI, priority 2016, dated 2019).
pEC50: −log10 of the molar value. Numbered stars: 1 amine (or outer) side, 2 acyl side, 3 side chain; on linkers, the order of the positions; unused ones are H or OH. Square brackets hold non-standard residues; d marks the D form. Side chains are listed from the residue outwards. Peptide text beside a SMILES is read from it. * marks the point of attachment. Adipoyl(4R-palmitoylamino) = CCCCCCCCCCCCCCCC(=O)N[C@H](CCC(=O)*)CC(=O)O; γGlu = O=C(O)[C@H](CCC(=O)[*:2])N[*:1]; Palmitoyl = CCCCCCCCCCCCCCCC(=O)*; AEEA = NCCOCCOCC(=O)O; Aib = CC(C)(N)C(=O)O

Tests used:
[1] = biological target: T1, human GIP receptor (hGIP-R) (Homo sapiens, UniProt P48546); experiment: cAMP response (HTRF) of HEK-293 cells stably expressing human GIP receptor; assay type: cell-based; conditions: Table 8; cAMP formation
T1 construct: expressed in transfected cells; host or cells: HEK-293
T1 sequence (P48546 22-466): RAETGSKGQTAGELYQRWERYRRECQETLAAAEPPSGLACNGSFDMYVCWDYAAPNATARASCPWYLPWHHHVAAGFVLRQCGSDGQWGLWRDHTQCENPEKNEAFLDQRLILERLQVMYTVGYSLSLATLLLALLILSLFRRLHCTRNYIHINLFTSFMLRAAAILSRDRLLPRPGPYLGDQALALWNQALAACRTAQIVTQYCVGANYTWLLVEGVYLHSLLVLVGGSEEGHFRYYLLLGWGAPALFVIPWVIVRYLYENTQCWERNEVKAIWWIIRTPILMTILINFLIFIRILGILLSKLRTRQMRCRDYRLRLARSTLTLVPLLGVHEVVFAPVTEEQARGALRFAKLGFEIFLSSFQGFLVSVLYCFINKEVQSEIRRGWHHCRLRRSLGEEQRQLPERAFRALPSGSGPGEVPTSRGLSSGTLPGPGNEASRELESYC
Procedure: (§1) cAMP content of cells was determined using a kit from Cisbio Corp. (cat. no. 62AM4PEJ) based on HTRF (Homogenous Time Resolved Fluorescence). For preparation, cells were split into T175 culture flasks and grown overnight to near confluency in medium (DMEM/10% FBS). Medium was then removed and cells washed with PBS lacking calcium and magnesium, followed by proteinase treatment with accutase (Sigma-Aldrich cat. no. A6964). Detached cells were washed and resuspended in assay buffer (1×HBSS; 20 mM HEPES, 0.1% BSA, 2 mM IBMX) and cellular density determined. They were then diluted to 400000 cells/ml and 25 μl-aliquots dispensed into the wells of 96-well plates. For measurement, 25 μl of test compound in assay buffer was added to the wells, followed by incubation for 30 minutes at room temperature.
(§2) Potencies of peptidic compounds at the GLP-1, glucagon and GIP receptors were determined by exposing cells expressing human glucagon receptor (hGlucagon R), human GIP receptor (hGIP-R) or human GLP-1 receptor (hGLP-1 R) to the listed compounds at increasing concentrations and measuring the formed cAMP as described in Methods.

[2] = Dynamic light scattering (DLS), hydrodynamic radius as surrogate for interaction parameter kD; assay type: physicochemical
Procedure: For every peptide solution, the hydrodynamic radius Rh and the diffusion constant D (related via the Stokes-Einstein equation) were determined as an average over triplicates. Both parameters were determined at different concentrations (e.g., Rh1 and D1: 1 mg/ml and Rh5 and D5: 5 mg/ml) in the same buffer system. The difference of these parameters between low and high peptide concentration is a surrogate for the DLS interaction parameter kD. Rh5<Rh1 or D5>D1 correspond to kD>0 and therefore to repulsive inter-particle interactions that result in improved physical (or colloidal) stability.
DLS buffer system A) 25 mM acetate buffer pH4.5, 3 mg/mL L-Methionine, 2.7 mg/mL m-cresol, 18 mg/mL Glycerol 85%
DLS Method C: DLS measurements were performed on a DynaPro Plate Reader II (Wyatt Technology, Santa Barbara, Calif., US) and using one of the following black, low volume, and non-treated plates: polystyrene 384 assay plate with clear bottom (Corning, N.Y., US), polystyrene 96 assay plate with clear bottom (Corning, N.Y., US), cyclo olefin polymer (COP) 384 assay plate with clear bottom (Aurora, Mont., US), or polystyrene 384 assay plate with clear bottom (Greiner Bio-One, Germany). The data were processed with the Dynamics software provided by Wyatt Technology. Parameters of the particle size distribution were determined with non-negatively constrained least squares (NNLS) methods using DynaLS algorithms. Measurements were taken at 25° C. with an 830 nm laser light source at an angle of 158°.
The hydrodynamic radius radius Rh of peptide samples was determined at different peptide concentrations (1 mg/ml and 5 mg/ml) in DLS buffer system A using DLS method C as described in Methods as surrogate for the DLS interaction parameter kD.

[3] = Thioflavin T (ThT) assay for physical stability (fibrillation); assay type: physicochemical; conditions: 3 mg/ml, 100 mM acetate pH 4.5 with m-cresol, shaking at 37° C.
Procedure: Investigations were carried out to determine fibrillation tendencies under stress conditions by shaking at 37° C. within Fluoroskan Ascent FL.
For the tests in Fluoroskan Ascent FL, 200 μL sample were placed into a 96 well mictrotiter plate PS, flat bottom, Greiner Fluotrac No. 655076. Plates were sealed with Scotch Tape (Quiagen). Samples were stressed by continuous cycles of 10 s shaking at 960 rpm and 50 s rest period at 37° C. The kinetic was monitored by measuring fluorescence intensity every 20 minutes.
Peptides were diluted in a buffer system to a final concentration of 3 mg/ml. 20 μL of a 10.1 mM ThT solution in H2O were added to 2 mL of peptide solution to receive a final concentration of 100 μM ThT. For each sample eight replicates were tested.
Tht buffer system A) 100 mM Acetate pH 4.5 including m-cresol (100 mM Natriumacetat trihydrat, pH adjustment using 2N CH3COOH, 2.7 mg/mL m-cresol) Tht buffer system B) 100 mM citrate buffer pH 6.0
Lag time in hours in Thioflavin T (ThT) assay of peptide samples was determined in Tht buffer system A as described in Methods.

[4] = Chemical stability assessment (UPLC-UV, relative purity loss); assay type: physicochemical; conditions: 1 mg/ml, 25 mM acetate buffer pH 4.5 with m-cresol (buffer system A)
Procedure: Prior to the chemical stability measurement of a peptide batch, its purity was determined through UPLC/MS. For stability testing the target concentration was 1 mg pure compound/ml. Therefore solutions from solid samples were prepared in a buffer system with a concentration of 1 mg/mL compound based on the previously determined % purity:
Chemical stability buffer system A) 25 mM acetate buffer pH4.5, 3 mg/mL L-Methionine, 2.7 mg/mL m-cresol, 18 mg/mL Glycerol 85%
Peptide solutions were filtered through […] pore size and filled into aliquots under aseptic conditions. At starting point UPLC-UV was performed by injection of 2 μl of the undiluted sample.
For chemical stability testing, aliquots were stored for 28 days at Sand 40° C. After this time course the samples were centrifuged for 15 min at 2500 RCF. Then 2 μl of the undiluted supernatant were analysed with UPLC-UV.
The chemical stability was rated through the relative loss of purity calculated by the equation: [(purity at starting point)−(purity after 28 days at X° C.)]/(purity at starting point)]*100%
The purity is calculated as [(peak area peptide)/(total peak area)]*100%
Peptide samples were prepared in Chemical stability buffer system A and chemical stability was assessed as described in Methods.

[5] = Solubility assessment (UPLC-UV); assay type: physicochemical; conditions: acetate buffer pH 4.5, 2.7 mg/ml m-cresol (buffer system A), target 10 mg/ml
Procedure: Prior to the solubility measurement of a peptide batch, its purity was determined through UPLC/MS.
Therefore solutions from solid samples were prepared in a buffer systems with a concentration of 10 mg/mL compound based on the previously determined % purity:
Solubility buffer system A) Acetate Buffer pH 4.5, 100 mM sodium acetate trihydrate, 2.7 mg/ml m-Cresol
UPLC-UV was performed after 1 hour of gentle agitation from the supernatant, which was obtained after 15 min of centrifugation at 2500 RCF (relative centrifugal acceleration).
The solubility was determined by the comparison of the UV peak area of 2 μL-injection of a buffered sample diluted 1:10 with a standard curve of a reference peptide with known concentration. The different UV extinction coefficients of sample and reference peptide were calculated based on the different amino acid sequences and considered in the concentration calculation.
Peptide samples were prepared in solubility buffer system A and solubility was assessed as described in Methods.

[6] = biological target: T2, human GLP-1 receptor (hGLP-1 R) (Homo sapiens, UniProt P43220); experiment: cAMP response (HTRF) of HEK-293 cells stably expressing human GLP-1 receptor; assay type: cell-based; conditions: Table 8; cAMP formation
T2 construct: expressed in transfected cells; host or cells: HEK-293
Procedure: as §1, §2

T2 sequence (P43220 24-463): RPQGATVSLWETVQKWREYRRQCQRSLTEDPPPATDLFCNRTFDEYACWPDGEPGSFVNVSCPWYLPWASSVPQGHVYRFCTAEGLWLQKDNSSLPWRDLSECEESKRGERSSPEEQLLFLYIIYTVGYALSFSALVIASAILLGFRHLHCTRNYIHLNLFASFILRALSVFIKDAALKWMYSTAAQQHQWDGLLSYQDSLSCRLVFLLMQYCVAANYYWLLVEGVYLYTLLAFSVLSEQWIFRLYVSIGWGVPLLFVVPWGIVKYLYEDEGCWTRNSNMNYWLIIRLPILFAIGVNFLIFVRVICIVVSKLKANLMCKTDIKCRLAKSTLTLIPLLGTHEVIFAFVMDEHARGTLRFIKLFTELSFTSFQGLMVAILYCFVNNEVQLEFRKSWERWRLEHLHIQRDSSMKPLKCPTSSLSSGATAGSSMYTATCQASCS

Row | SMILES | pEC50 [1] | Delta Rh [nm] = Rh5 − Rh1 ([2]; DLS buffer system A pH 4.5) [nm] | Rh1 [nm] c= 1 mg/ml ([2]; hydrodynamic radius, 1 mg/ml, DLS buffer system A pH 4.5, DLS method C, 25° C.) [nm] | Rh5 [nm] c = 5 mg/ml ([2]; hydrodynamic radius, 5 mg/ml, DLS buffer system A pH 4.5, DLS method C, 25° C.) [nm] | Lag time before increase [3] [h] | Chemical stability [relative purity loss 28 days 40° C.] (%) at pH 4.5 [4] [%] | solubility at 1 h [5] [µg/mL] | pEC50 [6]
1 | CCCCCCCCCCCCCCCC(=O)NCCOCCOCC(=O)N[C@@H](CCC(=O)N[C@@H](CCC(=O)NCCCC[C@H](NC(=O)[C@H](CC(C)C)NC(=O)[C@H](CCCCN)NC(=O)[C@H](CO)NC(=O)[C@H](CC(C)C)NC(=O)[C@H](CC(=O)O)NC(=O)[C@H](CO)NC(=O)[C@@H](NC(=O)[C@H](Cc1ccccc1)NC(=O)[C@@H](NC(=O)CNC(=O)[C@H](CCC(N)=O)NC(=O)C(C)(C)NC(=O)[C@@H](N)Cc1c[nH]cn1)[C@@H](C)O)[C@@H](C)O)C(=O)N[C@@H](CCC(=O)O)C(=O)N[C@@H](CCC(=O)O)C(=O)N[C@@H](CCC(N)=O)C(=O)N[C@@H](CCCNC(=N)N)C(=O)N[C@@H](CCC(N)=O)C(=O)NC(C)(C)C(=O)N[C@@H](CCC(=O)O)C(=O)N[C@@H](Cc1ccccc1)C(=O)N[C@H](C(=O)N[C@@H](CCC(=O)O)C(=O)N[C@@H](Cc1c[nH]c2ccccc12)C(=O)N[C@@H](CC(C)C)C(=O)N[C@@H](CCCCN)C(=O)N[C@@H](C)C(=O)N[C@H](C)C(=O)NCC(=O)N[C@@H](Cc1c[nH]cn1)C(=O)N1CCC[C@H]1C(=O)N[C@@H](CO)C(=O)NC(C)(C)C(=O)N[C@@H](CCCCN)C(=O)N1CCC[C@H]1C(=O)N1CCC[C@H]1C(=O)N1CCC[C@H]1C(=O)N[C@@H](CCCCN)C(N)=O)[C@@H](C)CC)C(=O)O)C(=O)O [SEQ ID NO: 19, H-Aib-Q-G-T-F-T-S-D-L-S-K-L-K[gGlu-gGlu-AEEA-Palm]-E-E-Q-R-Q-Aib-E-F-I-E-W-L-K-A-dAla-G-H-P-S-Aib-K-P-P-P-K-NH2] (H-H[Aib]QGTFTSDLSKLK([γGlu-γGlu-AEEA-Palmitoyl])EEQRQ[Aib]EFIEWLKA[dA]GHPS[Aib]KPPPK-NH2) | 11.10 | −0.1 | 3.1 | 3.0 | >45 | 6.0 | > 9200 | 
2 | CCCCCCCCCCCCCCCC(=O)N[C@H](CCC(=O)NCCOCCOCC(=O)N[C@@H](CCC(=O)NCCCC[C@H](NC(=O)[C@H](CC(C)C)NC(=O)[C@H](CCCCN)NC(=O)[C@H](CO)NC(=O)[C@H](CC(C)C)NC(=O)[C@H](CC(=O)O)NC(=O)[C@H](CO)NC(=O)[C@@H](NC(=O)[C@H](Cc1ccccc1)NC(=O)[C@@H](NC(=O)CNC(=O)[C@H](CCC(N)=O)NC(=O)C(C)(C)NC(=O)[C@@H](N)Cc1c[nH]cn1)[C@@H](C)O)[C@@H](C)O)C(=O)N[C@@H](CCC(=O)O)C(=O)N[C@@H](CCCCN)C(=O)N[C@@H](CCC(N)=O)C(=O)N[C@@H](CCCNC(=N)N)C(=O)N[C@@H](CCC(N)=O)C(=O)NC(C)(C)C(=O)N[C@@H](CCC(=O)O)C(=O)N[C@@H](Cc1ccccc1)C(=O)N[C@H](C(=O)N[C@@H](CCC(=O)O)C(=O)N[C@@H](Cc1c[nH]c2ccccc12)C(=O)N[C@@H](CC(C)C)C(=O)N[C@@H](CCCCN)C(=O)N[C@@H](C)C(=O)NCC(=O)NCC(=O)N[C@@H](Cc1c[nH]cn1)C(=O)N1CCC[C@H]1C(=O)N[C@@H](CO)C(=O)NC(C)(C)C(=O)N[C@@H](CCCCN)C(=O)N1CCC[C@H]1C(=O)N1CCC[C@H]1C(=O)N1CCC[C@H]1C(=O)N[C@@H](CCCCN)C(N)=O)[C@@H](C)CC)C(=O)O)CC(=O)O [SEQ ID NO: 20, H-Aib-Q-G-T-F-T-S-D-L-S-K-L-K[gGlu-AEEA-gAAA-Palm]-E-K-Q-R-Q-Aib-E-F-I-E-W-L-K-A-G-G-H-P-S-Aib-K-P-P-P-K-NH2] (H-H[Aib]QGTFTSDLSKLK([γGlu-AEEA-Adipoyl(4R-palmitoylamino)])EKQRQ[Aib]EFIEWLKAGGHPS[Aib]KPPPK-NH2) |  |  |  |  | >45 |  |  | 11.62
